Structures can show the parent of a compound that is named as a salt.
molecular target: T1, PDE4B (human recombinant) (Homo sapiens, UniProt Q07343); assay: PDE4B inhibition, fluorescence polarisation (FP) and/or SPA assay; assay type: biochemical; conditions: n=1 or average of 2 or more readings, accuracy ±about 0.5 log unit, read-out: PDE4B pIC50 (generally in FP assay) (±about 0.5) (converted)
T1 construct: made in house
Text: Human recombinant PDE4B, in particular the 2B splice variant thereof (HSPDE4B2B), is disclosed in WO 94/20079 and also M. M. McLaughlin et al., “A low Km, rolipram-sensitive, cAMP-specific phosphodiesterase from human brain: cloning and expression of cDNA, biochemical characterisation of recombinant protein, and tissue distribution of mRNA”, J. Biol. Chem., 1993, 268, 6470-6476. For example, in Example 1 of WO 94/20079, human recombinant PDE4B is described as being expressed in the PDE-deficient yeast Saccharomyces cerevisiae strain GL62, e.g. after induction by addition of 150 uM CuSO4, and 100,000×g supernatant fractions of yeast cell lysates are described for use in the harvesting of PDE4B enzyme.
The ability of compounds to inhibit catalytic activity at PDE4B or 4D (human recombinant), PDE3 (from bovine aorta), PDE5 (human recombinant) or PDE6 (from bovine retina) can optionally be determined by Scintillation Proximity Assay (SPA) in a 96-well format.
Test compounds (as a solution in DMSO, preferably about 2 microliter (ul) volume of DMSO solution) are preincubated at ambient temperature (room temperature, e.g. 19-23° C.) in Wallac Isoplates (code 1450-514) with PDE enzyme in 50 mM Tris-HCl buffer pH 7.5, 8.3 mM MgCl2, 1.7 mM EGTA, 0.05% (w/v) bovine serum albumin for 10-30 minutes (usually 30 minutes). The enzyme concentration is adjusted so that no more than 20% hydrolysis of the substrate defined below occurs in control wells without compound, during the incubation. For the PDE3, PDE4B and PDE4D assays, [5′,8-3H]Adenosine 3′,5′-cyclic phosphate (Amersham Pharmacia Biotech, code TRK.559; or Amersham Biosciences UK Ltd, Pollards Wood, Chalfont St Giles, Buckinghamshire HP8 4SP, UK) is added to give 0.05 uCi per well and about 10 nM final concentration. For the PDE5 and PDE6 assays, [8-^3H]Guanosine 3′,5′-cyclic phosphate (Amersham Pharmacia Biotech, code TRK.392) is added to give 0.05 uCi per well and about 36 nM final concentration. Plates containing assay mixture, preferably approx. 100 ul volume of assay mixture, are mixed on an orbital shaker for 5 minutes and incubated at ambient temperature for 1 hour. Phosphodiesterase SPA beads (Amersham Pharmacia Biotech, code RPNQ 0150) are added (about 1 mg per well) to terminate the assay. Plates are sealed and shaken and allowed to stand at ambient temperature for 35 minutes to 1 hour (preferably 35 minutes) to allow the beads to settle. Bound radioactive product is measured using a WALLAC TRILUX 1450 Microbeta scintillation counter. For inhibition curves, 10 concentrations (e.g. 1.5 nM-30 uM) of each compound are assayed. Curves are analysed using ActivityBase and XLfit (ID Business Solutions Limited, 2 Ocean Court, Surrey Research Park, Guildford, Surrey GU2 7QB, United Kingdom) Results are expressed as pIC50 values.
The ability of compounds to inhibit catalytic activity at PDE4B (human recombinant) or PDE4D (human recombinant) can optionally be determined by IMAP Fluorescence Polarisation (FP) assay (IMAP Explorer kit, available from Molecular Devices Corporation, Sunnydale, Calif., USA; Molecular Devices code: R8062) in 384-well format.
The IMAP FP assay is able to measure PDE activity in an homogenous, non-radioactive assay format. The FP assay uses the ability of immobilised trivalent metal cations, coated onto nanoparticles (tiny beads), to bind the phosphate group of FI-AMP that is produced on the hydrolysis of fluorescein-labelled (FI) cyclic adenosine mono-phosphate (FI-cAMP) to the non-cyclic FI-AMP form. […] Binding of FI-AMP product to the beads (coated with the immobilised trivalent cations) slows the rotation of the bound FI-AMP and leads to an increase in the fluorescence polarisation ratio of parallel to perpendicular light. Inhibition of the PDE reduces/inhibits this signal increase. […]

T1 sequence (Q07343 1-564 isoform Q07343-2): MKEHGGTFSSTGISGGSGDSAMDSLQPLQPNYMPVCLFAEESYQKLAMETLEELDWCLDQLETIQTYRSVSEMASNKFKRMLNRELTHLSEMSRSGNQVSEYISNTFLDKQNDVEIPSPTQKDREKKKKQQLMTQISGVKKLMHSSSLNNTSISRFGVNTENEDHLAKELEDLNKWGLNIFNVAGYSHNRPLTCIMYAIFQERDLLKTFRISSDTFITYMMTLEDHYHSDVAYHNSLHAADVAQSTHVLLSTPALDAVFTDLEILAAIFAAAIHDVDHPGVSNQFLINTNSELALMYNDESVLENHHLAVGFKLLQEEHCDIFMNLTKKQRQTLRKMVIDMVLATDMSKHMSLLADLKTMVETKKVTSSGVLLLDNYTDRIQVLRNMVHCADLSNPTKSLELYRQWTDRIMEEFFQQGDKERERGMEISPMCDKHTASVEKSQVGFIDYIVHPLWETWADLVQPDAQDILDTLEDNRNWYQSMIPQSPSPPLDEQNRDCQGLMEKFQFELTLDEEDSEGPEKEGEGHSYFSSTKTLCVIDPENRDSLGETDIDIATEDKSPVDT

| SMILES | IC50 |
| --- | --- |
| CCc1nc2c(cnn2CC)c(NC2CCOCC2)c1CNC(=O)CC(C)(C)CC(=O)NCc1c(CC)nc2c(cnn2CC)c1NC1CCOCC1 [Example 3, N,N′-bis{[1,6-diethyl-4-(tetrahydro-2H-pyran-4-ylamino)-1H-pyrazolo[3,4-b]pyridin-5-yl]methyl}-3,3-dimethylpentanediamide] | 0.0158 to 0.1 nM |
| CCc1nc2c(cnn2CC)c(NC2CCN(C(N)=O)CC2)c1CNC(=O)C1CCC(C(=O)NCc2c(CC)nc3c(cnn3CC)c2NC2CCN(C(N)=O)CC2)CC1 (stereo not drawn) [Example 11, N,N′-bis[(4-{[1-(aminocarbonyl)-4-piperidinyl]amino}-1,6-diethyl-1H-pyrazolo[3,4-b]pyridin-5-yl)methyl]-1,4-cyclohexanedicarboxamide trifluoroacetate] | 0.0158 to 0.1 nM |
| CCc1nc2c(cnn2CC)c(NC2CCOCC2)c1CNC(=O)COCC(=O)NCc1c(CC)nc2c(cnn2CC)c1NC1CCOCC1 [Example 9, 2,2′-oxybis(N-{[1,6-diethyl-4-(tetrahydro-2H-pyran-4-ylamino)-1H-pyrazolo[3,4-b]pyridin-5-yl]methyl}acetamide)] | 0.126 to 1 nM |
| CCc1nc2c(cnn2CC)c(NC2CCOCC2)c1CNC(=O)CCCC(=O)NCc1c(CC)nc2c(cnn2CC)c1NC1CCOCC1 [Example 2, N,N′-bis{[1,6-diethyl-4-(tetrahydro-2H-pyran-4-ylamino)-1H-pyrazolo[3,4-b]pyridin-5-yl]methyl}pentanediamide] | 0.126 to 1 nM |
| CCc1nc2c(cnn2CC)c(NC2CCOCC2)c1CNC(=O)c1ccc(Cc2ccc(C(=O)NCc3c(CC)nc4c(cnn4CC)c3NC3CCOCC3)cc2)cc1 [Example 5, 4,4′-methanediylbis(N-{[1,6-diethyl-4-(tetrahydro-2H-pyran-4-ylamino)-1H-pyrazolo[3,4-b]pyridin-5-yl]methyl}benzamide)] | 0.0158 to 0.1 nM |
| CCc1nc2c(cnn2CC)c(NC2CCOCC2)c1CNC(=O)Cc1cccc(CC(=O)NCc2c(CC)nc3c(cnn3CC)c2NC2CCOCC2)c1 [Example 8, 2,2′-benzene-1,3-diylbis(N-{[1,6-diethyl-4-(tetrahydro-2H-pyran-4-ylamino)-1H-pyrazolo[3,4-b]pyridin-5-yl]methyl}acetamide)] | 0.126 to 1 nM |
| CCc1nc2c(cnn2CC)c(NC2CCN(C(N)=O)CC2)c1CNC(=O)CCc1ccc(C(=O)NCc2c(CC)nc3c(cnn3CC)c2NC2CCN(C(N)=O)CC2)cc1 [Example 14, 4-({5-[({3-[4-({[(4-{[1-(aminocarbonyl)-4-piperidinyl]amino}-1,6-diethyl-1H-pyrazolo[3,4-b]pyridin-5-yl)methyl]amino}carbonyl)phenyl]propanoyl}amino)methyl]-1,6-diethyl-1H-pyrazolo[3,4-b]pyridin-4-yl}amino)-1-piperidinecarboxamide trifluoroacetate] | 0.0158 to 0.1 nM |
| CCc1nc2c(cnn2CC)c(NC2CCN(C(N)=O)CC2)c1CNC(=O)COc1ccccc1C(=O)NCc1c(CC)nc2c(cnn2CC)c1NC1CCN(C(N)=O)CC1 [Example 16, 4-[(5-{[({[2-({[(4-{[1-(aminocarbonyl)-4-piperidinyl]amino}-1,6-diethyl-1H-pyrazolo[3,4-b]pyridin-5-yl)methyl]amino}carbonyl)phenyl]oxy}acetyl)amino]methyl}-1,6-diethyl-1H-pyrazolo[3,4-b]pyridin-4-yl)amino]-1-piperidinecarboxamide trifluoroacetate] | 0.0158 to 0.1 nM |
| CCc1nc2c(cnn2CC)c(NC2CCN(C(N)=O)CC2)c1CNC(=O)Cc1cccc(C(=O)NCc2c(CC)nc3c(cnn3CC)c2NC2CCN(C(N)=O)CC2)c1 [Example 13, 4-({5-[({[3-({[(4-{[1-(aminocarbonyl)-4-piperidinyl]amino}-1,6-diethyl-1H-pyrazolo[3,4-b]pyridin-5-yl)methyl]amino}carbonyl)phenyl]acetyl}amino)methyl]-1,6-diethyl-1H-pyrazolo[3,4-b]pyridin-4-yl}amino)-1-piperidinecarboxamide trifluoroacetate] | 0.126 to 1 nM |
| CCc1nc2c(cnn2CC)c(NC2CCOCC2)c1CNC(=O)Cc1ccc(CC(=O)NCc2c(CC)nc3c(cnn3CC)c2NC2CCOCC2)cc1 [Example 6, 2,2′-benzene-1,4-diylbis(N-{[1,6-diethyl-4-(tetrahydro-2H-pyran-4-ylamino)-1H-pyrazolo[3,4-b]pyridin-5-yl]methyl}acetamide)] | 0.126 to 1 nM |

Further lines, results first:

| IC50 | SMILES |
| --- | --- |
| 0.0158 to 0.1 nM | CCc1nc2c(cnn2CC)c(NC2CCN(C(N)=O)CC2)c1CNC(=O)c1ccc(-c2ccc(C(=O)NCc3c(CC)nc4c(cnn4CC)c3NC3CCN(C(N)=O)CC3)cc2)cc1 [Example 26, N,N′-bis[(4-{[1-(aminocarbonyl)-4-piperidinyl]amino}-1,6-diethyl-1H-pyrazolo[3,4-b]pyridin-5-yl)methyl]-4,4′-biphenyldicarboxamide] |
| 0.126 to 1 nM | CCc1nc2c(cnn2CC)c(NC2CCOCC2)c1CNC(=O)c1cnc(C(=O)NCc2c(CC)nc3c(cnn3CC)c2NC2CCOCC2)cn1 [Example 32, N,N′-bis{[1,6-diethyl-4-(tetrahydro-2H-pyran-4-ylamino)-1H-pyrazolo[3,4-b]pyridin-5-yl]methyl}-2,5-pyrazinedicarboxamide] |
| 0.0158 to 0.1 nM | CCc1nc2c(cnn2CC)c(NC2CCN(C(N)=O)CC2)c1CNC(=O)c1ccc(Oc2ccc(C(=O)NCc3c(CC)nc4c(cnn4CC)c3NC3CCN(C(N)=O)CC3)cc2)cc1 [Example 27, 4,4′-{oxybis[benzene-4,1-diyl(oxomethanediyl)iminomethanediyl(1,6-diethyl-1H-pyrazolo[3,4-b]pyridine-5,4-diyl)imino]}di(1-piperidinecarboxamide)] |
| 0.126 to 1 nM | CCc1nc2c(cnn2CC)c(NC2CCOCC2)c1CNC(=O)c1ccc(-c2ccc(C(=O)NCc3c(CC)nc4c(cnn4CC)c3NC3CCOCC3)cn2)nc1 [Example 34, N,N′-bis{[1,6-diethyl-4-(tetrahydro-2H-pyran-4-ylamino)-1H-pyrazolo[3,4-b]pyridin-5-yl]methyl}-2,2′-bipyridine-5,5′-dicarboxamide] |
| 0.0158 to 0.1 nM | CCc1nc2c(cnn2CC)c(NC2CCN(C(N)=O)CC2)c1CNC(=O)c1ccc(Cc2ccc(C(=O)NCc3c(CC)nc4c(cnn4CC)c3NC3CCN(C(N)=O)CC3)cc2)cc1 [Example 18, 4,4′-{methanediylbis[benzene-4,1-diyl(oxomethanediyl)iminomethanediyl(1,6-diethyl-1H-pyrazolo[3,4-b]pyridine-5,4-diyl)imino]}di(1-piperidinecarboxamide) trifluoroacetate] |
| 0.0158 to 0.1 nM | CCc1nc2c(cnn2CC)c(NC2CCOCC2)c1CNC(=O)c1ccnc(-c2cc(C(=O)NCc3c(CC)nc4c(cnn4CC)c3NC3CCOCC3)ccn2)c1 [Example 31, N,N′-bis{[1,6-diethyl-4-(tetrahydro-2H-pyran-4-ylamino)-1H-pyrazolo[3,4-b]pyridin-5-yl]methyl}-2,2′-bipyridine-4,4′-dicarboxamide] |
| 0.126 to 1 nM | CCc1nc2c(cnn2CC)c(NC2CCN(C(N)=O)CC2)c1CNC(=O)CCC(=O)NCc1c(CC)nc2c(cnn2CC)c1NC1CCN(C(N)=O)CC1 [Example 17, N,N′-bis[(4-{[1-(aminocarbonyl)-4-piperidinyl]amino}-1,6-diethyl-1H-pyrazolo[3,4-b]pyridin-5-yl)methyl]butanediamide trifluoroacetate] |
| 0.126 to 1 nM | CCc1nc2c(cnn2CC)c(NC2CCOCC2)c1CNC(=O)c1ccc(Oc2ccc(C(=O)NCc3c(CC)nc4c(cnn4CC)c3NC3CCOCC3)cc2)cc1 [Example 24, 4,4′-oxybis(N-{[1,6-diethyl-4-(tetrahydro-2H-pyran-4-ylamino)-1H-pyrazolo[3,4-b]pyridin-5-yl]methyl}benzamide)] |

— US20090326003A1, “PYRAZOLO (3, 4-B) PYRIDINE DERIVATIVES AS PDE4 INHIBITORS” (priority 2006, published 2009)
